Measurements published in patent publication US20140335180A1, “PRODUCTS FOR ORAL ADMINISTRATION COMPRISING EXTRACTS OF PUNICA GRANATUM (POMEGRANATE), INTENDED FOR A PET, AND APPLICATIONS OF SAME” (VIRBAC SA, priority 2011, published 2014).
“And” between values parts separate entries of the source, which are not always exact repeats. Equal entries are not always repeated. “Also recorded” adds a separate entry of the source.

Key:
[1] = tested on: CnAOEC cells; test: 3H-thymidine DNA fragmentation apoptosis test in canine aortic endothelial cells; assay type: cell-based; details: for inhibition of the pro-apoptotic effects of free fatty acids: linoleic acid or γ-linolenic acid plus antioxidant, FIGS. 3 and 4; for effect on CnAOEC cell apoptosis: reference substances, phase 1, 24 hours exposure
Method: The 60 mm plates containing semi-confluent CnAOEC cells were labeled with ^3H-thymidine (1 μCi/ml) for 36 hours. These cells were then inoculated in 24-well culture plates (50,000 cells/well). After the exposure thereof to the agents under test (24 hours), the cells were treated with a lysis buffer (20 mmol/1 TrisHCl, pH 7.5, and 0.4% of Triton X-100 in PBS). The radiolabeled fragmented (apoptotic) DNA present in the supernatant was counted using a liquid scintillation analyzer. The results were then correlated with the total radioactivity incorporated in the cells (quantified after digestion of the remaining suspension with 180 μg/ml of DNase). The values calculated for the control cells (without adding test agent) were set at 100% and the results were expressed as a function of these control cells. Each time the reference substances were dissolved in ethanol (final concentration 1.5%), an identical quantity of ethanol was added to all the other wells, including the control wells.
The apoptosis tests were conducted with radiolabeled CnAOEC cells, at 60% confluence and in culture dishes previously treated with fibronectin.
The statistical evaluation is based on three separate experiments, each being performed with 2 to 4 independent wells.
The modulation of CnAOEC cell apoptosis (variation measured as a % relative to the control set at 100%) is performed in comparison to the reference substance glutathione (GSH).

[2] = tested on: CnAOEC cells; test: 3H-thymidine proliferation test in canine aortic endothelial cells; assay type: cell-based; details: for effect on CnAOEC cell proliferation: reference substances, phase 1, 48 hours exposure
Method: The cells are cultured in a culture medium containing CECGM (Canine Endothelial Cell Growth Medium) growth factors and previously coated with AFS (Attachment Factor Solution) agent to assist with the adherence thereof.
The confluent CnAOEC cell cultures were re-inoculated in 96-well culture plates (10,000 cells per […]). Six hours after the inoculation thereof, the cells were exposed to ^3H-thymidine (final concentration: 1 μCi/ml) and to the respective test agents for 48 hours, and were subjected to two washing steps with PBS. After a treatment with trypsin and a freeze-thaw cycle, the DNA incorporating ^3H-thymidine was captured on a glass fiber filter using a “Betaplate™ 96-bien-Cell Harvester” (Wallac, Turku).
The quantities of ^3H-thymidine incorporated in the control cells (without adding test agent) were defined as 100% and the results were expressed as a function of these control cells.
The soy isoflavones were solubilized in DMSO. The experimental samples, and those of the respective controls (DMSO free from test substance) contained a final DMSO concentration of 1%.
The statistical evaluation is based on three or four separate experiments, each being performed with 2 to 4 independent wells.

[3] = tested on: CnAOEC cells; assay type: cell-based, canine; details: dog, 24 h, 60 µM
Method: The MTT test was used for evaluating the viability of CNAOEC cells exposed to cytotoxic treatments (60 μM of digitonin or addition between 0.1% and 20% of DMSO or at increasing concentrations (ranging from 0.5 mM to 16 mM) of H2O2 for 24 hours so as to induce oxidative stress.
In this test, the cell damage is evaluated 24 hours after treatment with the cytotoxic substance by means of a 4-hour incubation with MTT at 0.5 mg/ml, 37° C. and 5% CO2. The plates are then centrifuged, and the formazan resulting from the reaction with MTT is solubilized in DMSO. The absorbance is measured at 570 nm, with a correction at 690 nm.
The MTT test was chosen to measure the cell viability on the basis of the data obtained after treating the cell with 60 μm digitonin (73% reduction±10%) and with 10% and 20% DMSO.
The damage to the CnAOEC cells caused by free radicals is obtained from a treatment with H2O2 at a concentration range from 0.5 mM to 16 mM.

[4] = tested on: CnAOEC cells; test: Protection of CnAOEC cells against H2O2 oxidative stress, MTT viability; assay type: cell-based, canine; details: 2 mM H2O2; for protective effect on CnAOEC cell viability: 50 μg/ml; for protective effect on CnAOEC cell viability against H2O2: 1 to 250 μg/ml
Method: The plates are then centrifuged, and the formazan resulting from the reaction with MTT is solubilized in DMSO. The absorbance is measured at 570 nm, with a correction at 690 nm. The ability of the natural substances to protect cells against the adverse effects of oxidative stress was evaluated in CnAOEC cells. […] After the pretreatment period, the cells were subjected to oxidative stress (2 mM H2O2) for 24 hours and the cell viability was evaluated using the MTT test as described above. For this test, the data are means obtained from eight different experiments±Standard Deviation (SD). They were analyzed statistically using a one-way ANOVA Student t-test. The differences were considered to be significant when p<0.05.

[5] = DPPH antioxidant test; assay type: biochemical
Method: The absorbance of the mixture is read at 540 nm every 5 minutes for 30 minutes at ambient temperature. After reduction, the color of the solution disappears (change from a violet color to a light yellow color). The reduction (referred to herein as “inhibition” or “quenching”) percentage reflects the free radical scavenging capacity of the test sample. Trolox is also used as a positive control. The results are given as a DPPH radical inhibition percentage.

[6] = Trolox Equivalent Antioxidant Capacity (TEAC) assay; assay type: biochemical; details: for ABTS radical inhibition: Table A, 50 μg/ml and 250 μg/ml where stated
Method: This method is based on the ability of antioxidant molecules to inactivate ABTS° ^+ radical with a long lifetime, compared to Trolox, a water-soluble vitamin E analog, used as the positive control. ABTS° ^+ radical is blue-green chromophore with a characteristic absorption at 734 nm.
The samples of the test substances and Trolox are diluted in PBS buffer to obtain the chosen concentrations, Then, 200 μl of ABTS° ^+ at a concentration of 7 mM is added to 50 μl of sample or Trolox solution in 96-well plates.
The absorbance of the various samples is read every 2 minutes for 6 minutes (incubation time) at ambient temperature. The results are given as a percentage of ABTS radical inhibition, and as Trolox equivalent (μM).

[7] = humans; cited from earlier work
[8] = dogs; cited from earlier work

Compound: N[C@@H](CCC(=O)N[C@@H](CS)C(=O)NCC(=O)O)C(=O)O [glutathione]
- inhibition of the pro-apoptotic effects of free fatty acids [1]: not completely inhibited
- effect on CnAOEC cell apoptosis [1]: inhibit apoptosis in CnAOEC cells significantly; also recorded: cell apoptosis is inhibited
- proliferation, % of the control ([2]; 10 mmol/l, positive control): 54.75%
- effect on CnAOEC cell proliferation [2]: reduce CnAOEC cell proliferation considerably

Compound: C[C@@H]1CC[C@@]2(OC1)O[C@H]1[C@@H](O)[C@H]3[C@@H]4CC[C@H]5C[C@@H](O[C@@H]6O[C@H](CO)[C@H](O[C@@H]7O[C@H](CO)[C@@H](O)[C@H](O[C@@H]8OC[C@@H](O)[C@H](O)[C@H]8O)[C@H]7O[C@@H]7O[C@H](CO)[C@H](O)[C@H](O[C@@H]8O[C@H](CO)[C@@H](O)[C@H](O)[C@H]8O)[C@H]7O)[C@H](O)[C@H]6O)[C@H](O)C[C@]5(C)[C@H]4CC[C@]3(C)[C@H]1[C@@H]2C [digitonin]
- reduction of cell viability (MTT) [3]: 73%

Compound: NCCS(=O)(=O)O [Taurine, taurine]
- protective effect on CnAOEC cell viability [4]: not capable of maintaining CnAOEC cell viability
- protective effect on CnAOEC cell viability against H2O2 [4]: did not display a protective effect
- % DPPH (radical inhibition) ([5]; sample 1 μg/ml): 4.95%
- % DPPH (radical inhibition) ([5]; sample 50 μg/ml): 10.84%
- % DPPH (radical inhibition) ([5]; sample 250 μg/ml): 25.09%
- % DPPH (radical inhibition) ([5]; sample 250 μg/ml, listed as taurine): 24%
- ABTS radical inhibition [6]: did not display any effect; also recorded: do not display any scavenging activity with ABTS
- ABTS°+ inhibition % ([6]; sample 1 μg/ml): −0.50%
- ABTS°+ inhibition % ([6]; sample 50 μg/ml): −0.69%
- ABTS°+ inhibition % ([6]; sample 250 μg/ml): −0.62%
- drop in CnAOEC cell proliferation ([2]; 50 μg/ml, 48 hours): 4%

Compound: Cc1c(C)c2c(c(C)c1O)CCC(C)(C(=O)O)O2 (stereo not drawn) [Trolox, reference compound]
- % DPPH (radical inhibition) ([5]; 5 μM): 4.21%
- % DPPH (radical inhibition) ([5]; 10 μM): 9.91%
- % DPPH (radical inhibition) ([5]; 15 μM): 17.00%
- % DPPH (radical inhibition) ([5]; 20 μM): 23.49%
- % DPPH (radical inhibition) ([5]; 25 μM): 28.6%
- % DPPH (radical inhibition) ([5]; 30 μM): 33.06%
- % DPPH (radical inhibition) ([5]; 40 μM): 41.18%

Compound: VEGF
- effect on CnAOEC cell proliferation [2]: no pro-proliferation effect on CnAOEC cells; also recorded: did not induce the same response in CnAOEC cells; also recorded: have no influence on CnAOEC cell proliferation

Compound: O=c1oc2c(O)c(O)cc3c(=O)oc4c(O)c(O)cc1c4c23 [ellagic acid]
- plasma concentration after dietary supplementation with pomegranate extract [7]: approximately 10 μg/ml

Compound: CCCCC/C=C\C/C=C\CCCCCCCC(=O)O [linoleic acid, reference compound]
- effect on CnAOEC cell apoptosis [1]: very strong pro-apoptotic reaction
- effect on CnAOEC cell proliferation [2]: inhibit endothelial proliferation completely; also recorded: reduce CnAOEC cell proliferation considerably

Compound: O=c1c(-c2ccc(O)cc2)coc2cc(O)cc(O)c12 [genistein]
- plasma concentrations after oral supplementation [8]: ≤ 5000 ng/mL

Compound: C[N+](C)(C)C[C@H](O)CC(=O)[O-].O=C(O)C(O)C(O)C(=O)O [L-carnitine, L-carnitine-L-tartrate]
- protective effect on CnAOEC cell viability [4]: not capable of maintaining CnAOEC cell viability
- protective effect on CnAOEC cell viability against H2O2 [4]: did not display a protective effect
- % DPPH (radical inhibition) ([5]; sample 1 μg/ml): 6.74%
- % DPPH (radical inhibition) ([5]; sample 50 μg/ml): 4.97%
- % DPPH (radical inhibition) ([5]; sample 250 μg/ml): 15% and 14.94%
- DPPH scavenging activity ([5]; text on Table B): low
- ABTS radical inhibition [6]: did not display any effect; also recorded: do not display any scavenging activity with ABTS
- ABTS°+ inhibition % ([6]; sample 1 μg/ml): 0.45%
- ABTS°+ inhibition % ([6]; sample 50 μg/ml): 0.37%
- ABTS°+ inhibition % ([6]; sample 250 μg/ml): 0.92%
- drop in CnAOEC cell proliferation ([2]; 50 μg/ml, 48 hours): 3.75%
- renewal rate (proliferation relative to control set at 100%) ([2]; 50 μg/ml, 48 hours): 96.25%

Compound: CC(=O)N[C@@H](CS)C(=O)O [N-acetylcysteine]
- inhibition of the pro-apoptotic effects of free fatty acids [1]: not completely inhibited
- effect on CnAOEC cell apoptosis [1]: inhibit apoptosis in CnAOEC cells significantly; also recorded: cell apoptosis is inhibited

Compound: CCCCC/C=C\C/C=C\C/C=C\CCCCC(=O)O [γ-linolenic acid, reference compound]
- effect on CnAOEC cell apoptosis [1]: very strong pro-apoptotic reaction
- effect on CnAOEC cell proliferation [2]: inhibit endothelial proliferation completely; also recorded: reduce CnAOEC cell proliferation considerably

Compound: bFGF: basic Fibroblast Growth Factor, vascular growth factor reference
- effect on CnAOEC cell proliferation [2]: no pro-proliferation effect on CnAOEC cells; also recorded: did not induce the same response in CnAOEC cells; also recorded: have no influence on CnAOEC cell proliferation
